Assay results as given in patent publication US7718680B2 (priority 2004, dated 2010).
Read-outs that look alike come from different tables or passages of the source.

Tests used:
[1] = molecular target: T1, Lethal Factor (LF) protease of anthrax toxin (Bacillus anthracis, UniProt P15917); assay: biochemical
[2] = molecular target: T1, Lethal Factor (LF) protease of anthrax toxin; assay: biochemical; remark: listed apart in the source
macrophages = assay type: cell-based

T1 sequence (P15917 34-809 limits assumed): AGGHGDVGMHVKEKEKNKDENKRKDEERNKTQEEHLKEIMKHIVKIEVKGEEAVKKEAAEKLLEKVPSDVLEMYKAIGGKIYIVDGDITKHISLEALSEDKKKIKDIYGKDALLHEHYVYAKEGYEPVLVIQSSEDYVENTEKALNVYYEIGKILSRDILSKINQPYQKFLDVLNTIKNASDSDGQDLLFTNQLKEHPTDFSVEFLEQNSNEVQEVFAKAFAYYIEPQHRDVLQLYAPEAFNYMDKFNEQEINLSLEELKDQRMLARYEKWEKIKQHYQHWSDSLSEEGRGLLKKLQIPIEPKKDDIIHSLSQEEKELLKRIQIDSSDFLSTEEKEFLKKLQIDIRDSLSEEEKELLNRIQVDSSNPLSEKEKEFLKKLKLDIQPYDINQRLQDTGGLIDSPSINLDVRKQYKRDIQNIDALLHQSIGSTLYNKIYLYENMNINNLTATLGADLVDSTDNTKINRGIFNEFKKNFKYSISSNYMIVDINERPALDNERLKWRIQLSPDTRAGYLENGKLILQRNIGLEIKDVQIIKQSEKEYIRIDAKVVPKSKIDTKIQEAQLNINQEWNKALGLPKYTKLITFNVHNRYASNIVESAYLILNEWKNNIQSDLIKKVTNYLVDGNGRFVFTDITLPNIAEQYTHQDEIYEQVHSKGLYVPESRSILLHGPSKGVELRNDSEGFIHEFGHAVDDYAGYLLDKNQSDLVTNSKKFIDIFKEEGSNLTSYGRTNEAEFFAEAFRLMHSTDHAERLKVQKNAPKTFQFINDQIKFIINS

Row | Structure (SMILES) | pIC50 Obs [1] | IC50 ([1]; read-out: IC50) [µM] | also measured
1 | O=C(O)CN1C(=O)/C(=C/c2ncc(-c3ccc(Br)cc3)s2)SC1=S [BI-11E4] | 5.36 | 4.4 | –
2 | O=C1NC(=S)NC(=O)C1=Cc1ccc(-c2ccc(Cl)c(Cl)c2)o1 [BI-11C3] | 5.68 | 2.1 | –
3 | O=C1NC(=S)NC(=O)C1=Cc1ccc(-c2ccccc2)s1 [BI-11C4] | 5.92 | 1.2 | –
4 | C=CCN1C(=O)/C(=C/c2ccc(-c3ccc(C(=O)O)c(Cl)c3)o2)SC1=S [Compound 20] | – | 2.7 | –
5 | O=C(O)CN1C(=O)/C(=C/c2ccc(-c3cccs3)s2)SC1=S [BI-11D3] | 5.64 | – | –
6 | O=C(O)CN1C(=O)/C(=C/c2cccs2)SC1=S [BI-11D1] | 4.10 | 79.4 | –
7 | O=C(O)CN1C(=O)/C(=C/c2ccc(-c3ccc(Br)cc3)o2)SC1=S [BI-11A10] | 6.07 | 0.85 | –
8 | O=C(O)CN1C(=O)/C(=C/c2ccc(-c3ccccc3)o2)SC1=S [BI-11C12] | 4.78 | 16.6 | –
9 | O=C(O)CN1C(=O)/C(=C/c2ccc(-c3ccccc3)s2)SC1=S [BI-11B10] | 6.13 | 0.74 | –
10 | CN1C(=N)NC(=O)/C1=C\c1ccc(-c2ccc(Cl)cc2)o1 [BI-11C5] | 3.70 | 200 | –
11 | O=C(O)CN1C(=O)/C(=C/c2ncc(-c3ccc(F)cc3)s2)SC1=S [BI-11E3] | 4.65 | 22.4 | –
12 | O=C1/C(=C/c2ccc(-c3ccccc3[N+](=O)[O-])o2)SC(=S)N1CCc1ccccc1 [Compound 6] | – | 31.9 | –
13 | NS(=O)(=O)c1ccc(-c2ccc(/C=C3\SC(=S)N(CC(=O)O)C3=O)o2)cc1 [Compound 12] | – | 9.1 | –
14 | O=C1/C(=C/c2ccc(-c3ccc(Cl)cc3)o2)SC(=S)N1Cc1ccco1 [Compound 2] | – | 150 | –
15 | O=C(O)CN1C(=O)/C(=C/c2ccc(-c3ccc(Cl)cc3)o2)SC1=S [BI-11A9] | 6.05 | 0.9 | –
16 | O=C1NC(=S)S/C1=C\c1ccc(-c2ccc(Br)c(Cl)c2)o1 [Compound 14] | – | 7 | inhibition at 10 µM ([1]; read-out: LF inhibition): > 70%
17 | O=C(O)CN1C(=O)/C(=C/c2ncc(-c3ccc(Cl)cc3)s2)SC1=S [BI-11D5] | 5.00 | 10 | –
18 | O=C(O)CN1C(=O)/C(=C/c2ccco2)SC1=S [BI-9B9b] | 3.85 | 140 | inhibition at 140 µM ([1]; read-out: LF inhibition): 50%; inhibition at 140 µM ([2]; read-out: LF inhibition): 50%
19 | O=C1NC(=S)NC(=O)C1=Cc1ccc(-c2cc(C(F)(F)F)ccc2Cl)o1 [BI-11C2] | 5.89 | 1.3 | –
20 | O=C(O)CN1C(=O)/C(=C/c2ccc(-c3ccc(Cl)cc3)s2)SC1=S [BI-11D10] | 5.49 | 3.2 | –

Row | Structure (SMILES) | pIC50 Obs [1] | IC50 ([1]; read-out: IC50) [µM] | also measured
21 | COc1ccc(-c2ccc(C=C3C(=O)NC(=S)NC3=O)o2)cc1Cl [BI-11C1] | 5.52 | 3 | –
22 | COc1ccc(-c2cnc(/C=C3\SC(=S)N(CC(=O)O)C3=O)s2)cc1OC [BI-11D6] | 5.30 | 5 | –
23 | O=C(O)CN1C(=O)/C(=C/c2ccc(-c3cc(C(F)(F)F)ccc3Cl)o2)SC1=S [BI-11B3] | 6.71 | 0.195 | Ki [1]: 0.032 µM; potency relative to GM6001 (macrophages): 100 fold; LF activity / cleavage of fluorinated peptide seen by 19F NMR [2]: potent LF inhibition
24 | CN1C(=N)NC(=O)/C1=C\c1ccc(-c2cc(C(F)(F)F)ccc2Cl)o1 [BI-11B11] | 4 | – | –
25 | C=CCN1C(=O)/C(=C/c2ccc(-c3ccc(F)cc3)o2)SC1=S [Compound 3] | – | 50 | –
26 | O=C1NC(=S)NC(=O)C1=Cc1ccc(-c2ccc(Cl)cc2)o1 [BI-11B12] | 5.36 | 4.4 | –
27 | O=C(O)CCCN1C(=O)/C(=C/c2ccc(-c3ccc(Br)cc3)o2)SC1=S [Compound 21] | – | 2.3 | –
28 | O=C(O)CN1C(=O)/C(=C/c2nccs2)SC1=S [BI-11D2] | 4.14 | 72.4 | –
29 | CN1C(NC(=O)O)=NC(=O)/C1=C\c1ccc(-c2ccc(Cl)cc2)o1 [BI-11C11] | >4 | – | IC50 [1]: > 100 µM
30 | O=C(O)CN1C(=O)S/C(=C\c2ccc(/C=C3\SC(=S)N(CC(=O)O)C3=O)s2)C1=O [BI-11E2] | – | – | IC50 [1]: 1.58 µM
31 | O=C1NC(=S)S/C1=C\c1ccc(-c2ccc(Cl)c(Cl)c2)o1 [Compound 13] | – | 7.4 | inhibition at 10 µM ([1]; read-out: LF inhibition): > 70%
32 | O=C(O)c1ccc(-c2ccc(/C=C3\SC(=S)N(Cc4cccnc4)C3=O)o2)cc1Cl [Compound 11] | – | 9.9 | –
33 | O=C(O)CN1C(=O)/C(=C/c2ccc(-c3ccc(Cl)c(Cl)c3)o2)SC1=S [BI-11B2] | 6.58 | 0.265 | potency relative to GM6001 (macrophages): 100 fold
34 | O=C(O)CN1C(=O)/C(=C/c2ccc(-c3ccc(I)cc3)o2)SC1=S [Compound 16] | – | 5.5 | inhibition at 10 µM ([1]; read-out: LF inhibition): > 70%
35 | O=C(O)CN1C(=O)/C(=C/c2ccc(-c3cc(C(F)(F)F)ccc3Cl)o2)SC1=S [BI-11D9] | – | – | IC50 [1]: 5.9 µM
36 | CNC(=O)[C@H](Cc1c[nH]c2ccccc12)NC(=O)[C@@H](CC(=O)NO)CC(C)C [GM6001, reference compound] | – | – | LF activity / cleavage of fluorinated peptide seen by 19F NMR [2]: reduced by approximately half
37 | O=C(O)CCN1C(=O)/C(=C/c2ccc(-c3ccc(Cl)cc3)o2)SC1=S [BI-MFM3] | 5.77 | 1.7 | Ki [1]: 0.8 ± 0.3 µM; effect on the Vmax [1]: no effect; type of inhibition [1]: competitive; inhibition at 10 µM ([1]; read-out: LF inhibition): > 70%; LF activity / cleavage of fluorinated peptide seen by 19F NMR [2]: Only the ^19F NMR signal relative to uncleaved peptide appears; inhibitory activity relative to GM6001 [2]: about twice as strong as GM6001
38 | O=C(O)CN1C(=O)S/C(=C\c2ccc(-c3ccc(Cl)c(Cl)c3)o2)C1=O [BI-11D8] | 5.25 | 5.6 | –
39 | O=C(O)CN1C(=O)/C(=C/c2ccc(-c3ccc(Cl)cc3[N+](=O)[O-])o2)SC1=S [BI-11A11] | 6.30 | 0.5 | –
